Drawing on ChEMBL document CHEMBL5029180, “Design and synthesis of an oral prodrug alalevonadifloxacin for the treatment of MRSA infection” (Bioorg Med Chem Lett, 2021), this text covers solubility and Drug metabolism for four compounds.

Data set [1] is described as follows: Aqueous solubility of compound at pH 7. It counts as physicochemical.
Data set [2] can be described thus: Prodrug activation in human intestinal S9 fraction assessed as S-(-)-nadifloxacin release measured after 90 mins by LC-MS/MS analysis. It counts as subcellular, Intestine. The note with it: s9, 1.5 h.
Data set [3] can be described thus: Prodrug activation in human liver S9 fraction assessed as S-(-)-nadifloxacin release measured after 30 to 60 mins by LC-MS/MS analysis. The following applies: time 30-60 min. It counts as subcellular.
A short description of data set [4]: Prodrug activation in human whole blood assessed as S-(-)-nadifloxacin release measured after 30 to 60 mins by LC-MS/MS analysis. It counts as tissue-based. The following applies: time 30-60 min.

`CC(C)[C@H](N)C(=O)OC1CCN(c2c(F)cc3c(=O)c(C(=O)O)cn4c3c2CC[C@@H]4C)CC1` gave a solubility in data set [1] above 200 mg/mL. In turn, `CC(C)[C@H](N)C(=O)OC1CCN(c2c(F)cc3c(=O)c(C(=O)O)cn4c3c2CC[C@@H]4C)CC1.CS(=O)(=O)O` gave a solubility in data set [1] above 200 mg/mL. `CS(=O)(=O)O.C[C@H](N)C(=O)OC1CCN(c2c(F)cc3c(=O)c(C(=O)O)cn4c3c2CC[C@@H]4C)CC1` gave a solubility in data set [1] below 1 mg/mL. The Drug metabolism result in data set [2], in data set [3] and in data set [4] was “Metabolite_Detected” in each case.

`C[C@H]1CCc2c(N3CCC(O)CC3)c(F)cc3c(=O)c(C(=O)O)cn1c23.N=C(N)NCCC[C@H](N)C(=O)O.O.O.O.O` yielded a solubility in data set [1] below 1 mg/mL.

By solubility is commonly meant the concentration that dissolves in the medium under given conditions. A higher solubility goes with a readily soluble substance.
